Laboratory results: ChEMBL document CHEMBL4229547, “Design, synthesis and biological mechanisms research on 1,2,3-triazole derivatives of Jiyuan Oridonin A” (Bioorg Med Chem, 2018)

Key:
Assay type in all cases: functional, cell-based
MCF7 = experiment: Antiproliferative activity against human MCF7 cells after 48 hrs by MTT assay; details: MCF7, 48 h
EC9706 = experiment: Antiproliferative activity against human EC9706 cells after 48 hrs by MTT assay; details: EC9706, 48 h
ECa-109 cell line = experiment: Antiproliferative activity against human ECA109 cells after 48 hrs by MTT assay; details: ECa-109, 48 h
SMMC-7721 = experiment: Antiproliferative activity against human SMMC7721 cells after 48 hrs by MTT assay; details: SMMC-7721, 48 h
HGC-27 = experiment: Antiproliferative activity against human HGC27 cells after 48 hrs by MTT assay; details: HGC-27, 48 h
PC-3 = experiment: Antiproliferative activity against human PC3 cells after 48 hrs by MTT assay; details: PC-3, 48 h
MGC-803 = experiment: Antiproliferative activity against human MGC803 cells after 48 hrs by MTT assay; details: MGC-803, 48 h

| Structure (SMILES) | IC50 (MCF7) [µM] | IC50 (EC9706) [µM] | IC50 (ECa-109 cell line) [µM] | IC50 (SMMC-7721) [µM] | IC50 (HGC-27) [µM] | IC50 (PC-3) [µM] | IC50 (MGC-803) [µM] |
| --- | --- | --- | --- | --- | --- | --- | --- |
| C=C1C(=O)[C@]23[C@H](O)[C@H]1C[C@H](O)[C@H]2[C@]12CCCC(C)(C)[C@H]1C[C@H]3O[C@@H]2OCCn1cc(CCCC)nn1 | 13.4 | 8.29 | 4.45 | 11 | – | – | – |
| C=C1C(=O)[C@]23[C@H](O)[C@H]1CC[C@H]2[C@@]12CO[C@]3(O)[C@@H](O)[C@@H]1C(C)(C)CC[C@@H]2O [ORIDONIN] | 74.2 | 38.4 | 31.8 | 54 | 32 | 27.6 | 33.1 |
| C=C1C(=O)[C@]23[C@H](O)[C@H]1C[C@H](O)[C@H]2[C@]12CCCC(C)(C)[C@H]1C[C@H]3O[C@@H]2OCCc1cn(Cc2ccccc2)nn1 | 9.45 | 7.54 | 3.51 | 5.79 | – | – | – |
| C#CCO[C@H]1O[C@@H]2C[C@@H]3C(C)(C)CCC[C@]13[C@@H]1[C@@H](O)C[C@H]3C(=C)C(=O)[C@@]21[C@@H]3O | 14.6 | 7.87 | 10.8 | 15.3 | – | 3.92 | 3.77 |
| C=C1C(=O)[C@]23[C@H](O)[C@H]1C[C@H](O)[C@H]2[C@]12CCCC(C)(C)[C@H]1C[C@H]3O[C@@H]2OCCn1cc(C2CC2)nn1 | 11 | 11.4 | 4.3 | 9.66 | – | 3.79 | 4.58 |
| C=C1C(=O)[C@]23[C@H](O)[C@H]1C[C@H](O)[C@H]2[C@]12CCCC(C)(C)[C@H]1C[C@H]3O[C@@H]2OCCn1cc(-c2ccccc2)nn1 | 8.95 | 5.32 | 4.26 | 6.07 | – | 11.2 | 9.62 |
| C=C1C(=O)[C@]23[C@H](O)[C@H]1C[C@H](O)[C@H]2[C@]12CCCC(C)(C)[C@H]1C[C@H]3O[C@@H]2OCCc1cn(Cc2ccc(OC)cc2)nn1 | 7.81 | 4.67 | 2.57 | 4.81 | – | 4.95 | 4.79 |
| C=C1C(=O)[C@]23[C@H](O)[C@H]1C[C@H](O)[C@H]2[C@]12CCCC(C)(C)[C@H]1C[C@H]3O[C@@H]2OCCc1cn(Cc2ccc(Cl)c(Cl)c2)nn1 | 6.85 | 4.21 | 2.58 | 3.76 | – | – | – |
| C=C1C(=O)[C@]23[C@H](O)[C@H]1C[C@H](O)[C@H]2[C@]12CCCC(C)(C)[C@H]1C[C@H]3O[C@@H]2OCCc1cn(Cc2ccc([N+](=O)[O-])cc2)nn1 | 6.45 | 7.78 | 4.13 | 3.8 | – | – | – |
| C=C1C(=O)[C@]23[C@H](O)[C@H]1C[C@H](O)[C@H]2[C@]12CCCC(C)(C)[C@H]1C[C@H]3O[C@H]2O | 22.9 | 22.5 | 20.7 | 20.2 | – | 15 | 14.7 |
| C=C1C(=O)[C@]23[C@H](O)[C@H]1C[C@H](O)[C@H]2[C@]12CCCC(C)(C)[C@H]1C[C@H]3O[C@@H]2OCCc1cn(Cc2ccc(C)cc2)nn1 | 7.86 | 6.1 | 2.12 | 5.68 | – | 4.9 | 3.89 |
| C=C1C(=O)[C@]23[C@H](O)[C@H]1C[C@H](O)[C@H]2[C@]12CCCC(C)(C)[C@H]1C[C@H]3O[C@@H]2OCCc1cn(Cc2cc(OC)c(OC)c(OC)c2)nn1 | 8.79 | 9.5 | 4.51 | 9.03 | – | – | – |
| C=C1C(=O)[C@]23[C@H](O)[C@H]1C[C@H](O)[C@H]2[C@]12CCCC(C)(C)[C@H]1C[C@H]3O[C@@H]2OCCc1cn(Cc2ccc(F)cc2)nn1 | 6.62 | 4.5 | 3.68 | 5.88 | – | – | – |
| C=C1C(=O)[C@]23[C@H](O)[C@H]1C[C@H](O)[C@H]2[C@]12CCCC(C)(C)[C@H]1C[C@H]3OC2OCCN=[N+]=[N-] (single isomer, unassigned) | 1.6 | 8.71 | 6.08 | 10 | – | 12.3 | 11.9 |
